Reference: the supplement of paper PMC10307832

Tests used:
Experiment in all cases: relative viability (nuclei count vs DMSO), 5 days (fraction); higher = more cells survive
[1] = compound: C[C@H]([C@@H](C(=O)N)NC(=O)[C@@H]1CSSC[C@@H](C(=O)N[C@H](C(=O)N[C@@H](C(=O)N[C@H](C(=O)N1)CCCCN)CC2=CNC3=CC=CC=C32)CC4=CC=C(C=C4)O)NC(=O)[C@@H](CC5=CC=CC=C5)N)O [CAP-232] + COc1cccc2cc(-c3nc([C@H]4CC[C@H](C(=O)O)CC4)n4ncnc(N)c34)[nH]c12 [OSI-027] (partner 0.5 µM)
Summary of the method: (§1)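 Lung cancer cell lines in 1536-well plates were dosed by pin tool the day after seeding, either with one drug alone or with a fixed anchor-drug dose plus five library-drug doses (not always all listed) in √10 steps. After 5 days, cells were fixed and their nuclei stained in one step (final 0.05% Triton X-100, 1% formaldehyde, 1 ug/ml Hoechst), then counted on 4× images. Relative viability is the nuclei count in treated wells divided by that in vehicle wells. Values are medians of duplicate plates.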

[2] = compound: C[C@H]([C@@H](C(=O)N)NC(=O)[C@@H]1CSSC[C@@H](C(=O)N[C@H](C(=O)N[C@@H](C(=O)N[C@H](C(=O)N1)CCCCN)CC2=CNC3=CC=CC=C32)CC4=CC=C(C=C4)O)NC(=O)[C@@H](CC5=CC=CC=C5)N)O [CAP-232] + CCNC(=O)c1noc(-c2cc(C(C)C)c(O)cc2O)c1-c1ccc(CN2CCOCC2)cc1 [Luminespib] (partner 0.01 µM)
Summary of the method: as §1

[3] = compound: C[C@H]([C@@H](C(=O)N)NC(=O)[C@@H]1CSSC[C@@H](C(=O)N[C@H](C(=O)N[C@@H](C(=O)N[C@H](C(=O)N1)CCCCN)CC2=CNC3=CC=CC=C32)CC4=CC=C(C=C4)O)NC(=O)[C@@H](CC5=CC=CC=C5)N)O [CAP-232] + Nc1ncn([C@H]2C[C@H](O)[C@@H](CO)O2)c(=O)n1 [Decitabine] (partner 2 µM)
Summary of the method: as §1

[4] = compound: C[C@H]([C@@H](C(=O)N)NC(=O)[C@@H]1CSSC[C@@H](C(=O)N[C@H](C(=O)N[C@@H](C(=O)N[C@H](C(=O)N1)CCCCN)CC2=CNC3=CC=CC=C32)CC4=CC=C(C=C4)O)NC(=O)[C@@H](CC5=CC=CC=C5)N)O [CAP-232] + COc1cc2c(Oc3ccc(NC(=O)C4(C(=O)Nc5ccc(F)cc5)CC4)cc3F)ccnc2cc1OCCCN1CCOCC1 [Foretinib] (partner 0.25 µM)
Summary of the method: as §1

[5] = compound: C[C@H]([C@@H](C(=O)N)NC(=O)[C@@H]1CSSC[C@@H](C(=O)N[C@H](C(=O)N[C@@H](C(=O)N[C@H](C(=O)N1)CCCCN)CC2=CNC3=CC=CC=C32)CC4=CC=C(C=C4)O)NC(=O)[C@@H](CC5=CC=CC=C5)N)O [CAP-232] + Cc1nc(NC(=O)N2CCC[C@H]2C(N)=O)sc1-c1ccnc(C(C)(C)C(F)(F)F)c1 [Alpelisib] (partner 2 µM)
Summary of the method: as §1

Row | Cell Line | relative viability ([1]; first compound 0.4 µM) | relative viability ([1]; first compound 1.265 µM) | relative viability ([1]; first compound 4 µM) | relative viability ([1]; first compound 12.65 µM) | relative viability ([2]; first compound 0.4 µM) | relative viability ([2]; first compound 1.265 µM) | relative viability ([2]; first compound 4 µM) | relative viability ([2]; first compound 12.65 µM) | relative viability ([3]; first compound 0.4 µM) | relative viability ([3]; first compound 1.265 µM) | relative viability ([3]; first compound 4 µM) | relative viability ([3]; first compound 12.65 µM) | relative viability ([4]; first compound 0.4 µM) | relative viability ([4]; first compound 1.265 µM) | relative viability ([4]; first compound 4 µM) | relative viability ([4]; first compound 12.65 µM) | relative viability ([5]; first compound 0.4 µM) | relative viability ([5]; first compound 1.265 µM) | relative viability ([5]; first compound 4 µM) | relative viability ([5]; first compound 12.65 µM)
1 | EMC-BAC-2 | 0.407 | 0.324 | 0.328 | 0.358 | 1.32 | 1.19 | 1.21 | 1.05 | 0.969 | 0.963 | 0.959 | 0.972 | 1.1 | 0.953 | 1.01 | 0.907 | 0.78 | 0.718 | 0.743 | 0.623
2 | NCI-H661 | 0.757 | 0.692 | 0.753 | 0.545 | 0.954 | 0.907 | 0.883 | 0.719 | 0.546 | 0.543 | 0.583 | 0.446 | 0.986 | 0.951 | 1.05 | 1.02 | 0.594 | 0.382 | 0.913 | 0.596
3 | LU99A | 0.263 | 0.267 | 0.276 | 0.313 | 0.333 | 0.267 | 0.182 | 0.246 | 0.861 | 0.806 | 1.1 | 0.973 | 0.811 | 0.787 | 0.977 | 0.736 | 0.515 | 0.517 | 0.471 | 0.497
4 | LK-2 | 0.197 | 0.18 | 0.231 | 0.175 | 0.176 | 0.207 | 0.19 | 0.183 | 0.357 | 0.234 | 0.37 | 0.302 | 1.4 | 1.22 | 1.54 | 1.19 | 1.02 | 1.15 | 1.2 | 1.75
5 | NCI-H3122 | 0.629 | 1.01 | 1.07 | 0.474 | 0.0705 | 0.067 | 0.0822 | 0.0819 | 0.392 | 0.364 | 0.458 | 0.426 | 0.91 | 0.97 | 0.795 | 1.03 | 0.735 | 0.76 | 0.838 | 0.84
6 | NCI-H2347 | 0.29 | 0.489 | 0.352 | 0.614 | 0.274 | 0.493 | 0.443 | 0.471 | 0.648 | 0.589 | 0.555 | 0.544 | 0.804 | 0.524 | 1.11 | 1.05 | 0.966 | 0.993 | 0.986 | 0.995
7 | NCI-H1563 | 0.757 | 0.673 | 0.647 | 0.613 | 0.461 | 0.52 | 0.455 | 0.462 |  |  |  |  | 0.972 | 0.886 | 0.939 | 0.639 | 0.92 | 0.955 | 0.908 | 0.626
8 | HCC-827 | 0.896 | 0.786 | 0.831 | 0.637 | 0.629 | 0.66 | 0.659 | 0.749 | 0.334 | 0.357 | 0.324 | 0.365 | 1.05 | 1 | 1.01 | 1.01 | 0.913 | 0.925 | 0.967 | 0.919
9 | NCI-H1666 | 0.973 | 0.809 | 0.907 | 0.769 | 1.03 | 1.04 | 0.982 | 0.963 | 0.711 | 0.735 | 0.814 | 0.796 | 0.946 | 0.989 | 0.892 | 0.821 | 0.991 |  | 1.05 | 0.816
10 | NCI-H358 | 0.665 | 0.864 | 0.71 | 0.664 | 0.241 | 0.289 | 0.376 | 0.352 | 0.184 | 0.198 | 0.229 | 0.18 | 0.678 | 0.841 | 0.686 | 0.563 | 0.508 | 0.821 | 0.868 | 0.789
11 | 201T | 0.749 | 0.669 | 0.722 | 0.549 | 1.08 | 1.04 | 0.967 | 1.07 | 0.842 | 0.844 | 0.817 | 0.849 | 1.17 | 1.14 | 1.03 | 0.864 | 1.05 | 0.975 | 0.992 | 1.04
12 | RERF-LC-KJ | 0.588 | 0.533 | 0.486 | 0.231 | 1.27 | 1.39 | 1 | 0.918 | 0.659 | 0.758 | 0.79 | 0.41 | 0.87 | 0.993 | 0.951 | 0.884 | 0.951 | 0.693 | 0.833 | 0.816
13 | NCI-H2405 | 0.626 | 0.648 | 0.693 | 0.518 | 0.61 | 0.709 | 0.641 | 0.491 | 0.715 | 0.752 | 0.796 | 0.578 | 1.04 | 1.11 | 1.05 | 0.79 | 0.623 | 0.924 | 0.683 | 0.396
14 | LXF-289 | 0.824 | 0.721 | 0.805 | 0.741 | 0.787 | 0.642 | 0.581 | 0.775 | 0.331 | 0.36 | 0.391 | 0.343 | 0.985 | 0.965 | 1.01 | 0.995 | 1.13 | 1.08 | 1.1 | 1.02
